IC50 and IC12 data for two compounds are collected here from ChEMBL document CHEMBL1158869, “Bioactive iridoids and a new lignan from Allamanda cathartica and Himatanthus fallax from the Suriname rainforest” (J Nat Prod, 1997).

One assay deals with M109. Nature of the assay: Cytotoxicity against mouse M109 cells. In kind it is functional, cell-based.
A further assay relates to Saccharomyces cerevisiae. Nature of the assay: Antimicrobial activity against yeast Sc7. The assay is classed as functional.

One may read the IC50 as the concentration needed to halve the response being measured. Read a high IC50 as weaker potency.

Converted amounts (≈) assume the structure as drawn.

In the assay on M109, `C/C=C1\C(=O)O[C@]23C=C[C@@H]4C(C(=O)OC)=CO[C@H](O[C@@H]12)[C@@H]43` [ISOPLUMERICIN] showed an IC50 of 25 µg/mL (≈ 86.1 µM). Further, in the assay on Saccharomyces cerevisiae, the IC12 was found to be 42 µg/mL.
In the assay on M109, `C/C=C1/C(=O)O[C@]23C=C[C@@H]4C(C(=O)OC)=CO[C@H](O[C@@H]12)[C@@H]43` [PLUMERICIN] gave a concentration for half-maximal inhibition (IC50) of 100 µg/mL (≈ 345 µM). Moreover, the IC12 with Saccharomyces cerevisiae is 74 µg/mL.
